According to patent US8952024B2, “Herbicidal pyrimidone derivatives” (E I du Pont de Nemours and Company, priority 2009, dated 2015):

Tests used:
Experiment in all cases: Test D pre-/postemergence plant response
Assay type in all cases: in vivo
[1] = test system: chickweed (common chickweed, Stellaria media)
In short: (§1)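 Scores (0 no effect, 100 complete control) reflect visual assessment against untreated plants after 14 to 21 days. Treatments were pre- and postemergence sprays in solvent with surfactant.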

[2] = test system: goosegrass (Eleusine indica)
In short: as §1

[3] = test system: bermudagrass (Cynodon dactylon)
In short: as §1

[4] = test system: spanishneedles (Bidens bipinnata)
In short: as §1

[5] = test system: johnsongrass (Sorghum halepense)
In short: as §1

[6] = Postemergence, 125 g ai/ha, scale 0 to 100 (0 no effect, 100 complete control)
[7] = Postemergence, 16 g ai/ha, scale 0 to 100
[8] = Postemergence, 31 g ai/ha, scale 0 to 100
[9] = Postemergence, 62 g ai/ha, scale 0 to 100 (0 no effect, 100 complete control)
[10] = Preemergence, 16 g ai/ha, scale 0 to 100, 0 no effect, 100 complete control
[11] = Preemergence, 31 g ai/ha, scale 0 to 100 (0 no effect, 100 complete control)
[12] = Preemergence, 62 g ai/ha, scale 0 to 100
[13] = Preemergence, 125 g ai/ha, scale 0 to 100
[14] = Postemergence, 31 g ai/ha, scale 0 to 100 (0 no effect, 100 complete control)

Structure (SMILES)	Plant response rating, Goosegrass [2, 7]	Plant response rating, Goosegrass [2, 8]	Plant response rating, Goosegrass [2, 6]	Plant response rating, Goosegrass [2, 9]	Plant response rating, Goosegrass [2, 10]	Plant response rating, Goosegrass [2, 11]	Plant response rating, Goosegrass [2, 12]	Plant response rating, Goosegrass [2, 13]	Plant response rating, Bermudagrass [3, 7]	Plant response rating, Bermudagrass [3, 14]	Plant response rating, Bermudagrass [3, 6]	Plant response rating, Bermudagrass [3, 9]	Plant response rating, Bermudagrass [3, 10]	Plant response rating, Bermudagrass [3, 11]	Plant response rating, Bermudagrass [3, 12]	Plant response rating, Bermudagrass [3, 13]	Plant response rating, Spanishneedles [4, 7]	Plant response rating, Spanishneedles [4, 8]	Plant response rating, Spanishneedles [4, 6]	Plant response rating, Spanishneedles [4, 9]	further results
Cc1ccc(F)c(-n2c(-c3ccccc3)ncc(C(=O)C3=C(O)CCCC3=O)c2=O)c1 [Compound 51]	35	65	65	65	20	20	40	40	65	75	85	80	0	0	0	30	35	50	70	60	Plant response rating, Chickweed [1, 6]: 70; Plant response rating, Spanishneedles [4, 10]: 0; Plant response rating, Spanishneedles [4, 11]: 0; Plant response rating, Spanishneedles [4, 13]: 98; Plant response rating, Johnsongrass [5, 7]: 20; Plant response rating, Johnsongrass [5, 8]: 35; Plant response rating, Johnsongrass [5, 6]: 70; Plant response rating, Johnsongrass [5, 9]: 60; Plant response rating, Johnsongrass [5, 10]: 0; Plant response rating, Johnsongrass [5, 11]: 0; Plant response rating, Johnsongrass [5, 12]: 20; Plant response rating, Johnsongrass [5, 13]: 70
Cc1ccc(Cl)cc1-n1c(-c2ccccc2)ncc(C(=O)C2=C(O)CCCC2=O)c1=O [Compound 52]	65	75	80	75	5	60	80	98	75	75	80	75	30	70	90	100	75	75	80	80	Plant response rating, Chickweed [1, 7]: 75; Plant response rating, Chickweed [1, 8]: 90; Plant response rating, Chickweed [1, 6]: 100; Plant response rating, Chickweed [1, 9]: 98; Plant response rating, Chickweed [1, 13]: 95; Plant response rating, Spanishneedles [4, 10]: 35; Plant response rating, Spanishneedles [4, 11]: 70; Plant response rating, Spanishneedles [4, 13]: 98; Plant response rating, Johnsongrass [5, 7]: 65; Plant response rating, Johnsongrass [5, 8]: 75; Plant response rating, Johnsongrass [5, 9]: 85; Plant response rating, Johnsongrass [5, 10]: 0; Plant response rating, Johnsongrass [5, 11]: 0; Plant response rating, Johnsongrass [5, 12]: 75; Plant response rating, Johnsongrass [5, 13]: 95
O=C1CCCC(O)=C1C(=O)c1cnc(-c2cccs2)n(-c2ccccc2)c1=O [Compound 66]	50	50	75	65	0	0	30	50	5	50	65	65	0	0	5	5	65	70	80	80	Plant response rating, Chickweed [1, 6]: 95; Plant response rating, Chickweed [1, 9]: 35; Plant response rating, Chickweed [1, 10]: 0; Plant response rating, Chickweed [1, 11]: 20; Plant response rating, Chickweed [1, 12]: 90; Plant response rating, Chickweed [1, 13]: 98; Plant response rating, Spanishneedles [4, 10]: 0; Plant response rating, Spanishneedles [4, 11]: 60; Plant response rating, Spanishneedles [4, 13]: 95; Plant response rating, Johnsongrass [5, 7]: 0; Plant response rating, Johnsongrass [5, 8]: 20; Plant response rating, Johnsongrass [5, 6]: 60; Plant response rating, Johnsongrass [5, 9]: 50; Plant response rating, Johnsongrass [5, 10]: 0; Plant response rating, Johnsongrass [5, 11]: 0; Plant response rating, Johnsongrass [5, 12]: 0; Plant response rating, Johnsongrass [5, 13]: 30
O=C1CCCC(O)=C1C(=O)c1cnc(C2CC2)n(-c2ccccc2)c1=O [Compound 87]	30	35	65	65	35	35	95	100	65	65	85	70	65	65	98	98	60	60	70	60	Plant response rating, Chickweed [1, 7]: 75; Plant response rating, Chickweed [1, 8]: 75; Plant response rating, Chickweed [1, 6]: 100; Plant response rating, Chickweed [1, 9]: 75; Plant response rating, Spanishneedles [4, 10]: 0; Plant response rating, Spanishneedles [4, 11]: 65; Plant response rating, Spanishneedles [4, 13]: 98; Plant response rating, Johnsongrass [5, 7]: 20; Plant response rating, Johnsongrass [5, 8]: 30; Plant response rating, Johnsongrass [5, 6]: 60; Plant response rating, Johnsongrass [5, 9]: 40; Plant response rating, Johnsongrass [5, 10]: 0; Plant response rating, Johnsongrass [5, 11]: 5; Plant response rating, Johnsongrass [5, 12]: 20; Plant response rating, Johnsongrass [5, 13]: 70
O=C1CCCC(O)=C1C(=O)c1cnc(-c2cccnc2)n(-c2ccccc2)c1=O [Compound 113, 5-[(2-hydroxy-6-oxo-1-cyclohexen-1-yl)carbonyl]-3-phenyl-2-(3-pyridinyl)-4(3H)-pyrimidone]	40	50	65	65	25	25	75	95	65	70	80	80	50	50	70	85	35	35	60	50	Plant response rating, Chickweed [1, 8]: 70; Plant response rating, Spanishneedles [4, 10]: 0; Plant response rating, Spanishneedles [4, 11]: 0; Plant response rating, Spanishneedles [4, 13]: 95; Plant response rating, Johnsongrass [5, 7]: 40; Plant response rating, Johnsongrass [5, 8]: 40; Plant response rating, Johnsongrass [5, 6]: 75; Plant response rating, Johnsongrass [5, 9]: 65; Plant response rating, Johnsongrass [5, 10]: 0; Plant response rating, Johnsongrass [5, 11]: 0; Plant response rating, Johnsongrass [5, 12]: 10; Plant response rating, Johnsongrass [5, 13]: 10
O=C1CCCC(O)=C1C(=O)c1cnc(-c2ccccc2)n(C2CCCCC2)c1=O [Compound 128, 3-cyclohexyl-5-[(2-hydroxy-6-oxo-1-cyclohexen-1-yl)carbonyl]-2-phenyl-4(3H)-pyrimidinone]	35	40	70	65	0	5	65	90	70	70	90	80	0	0	65	75	35	50	65	50	Plant response rating, Chickweed [1, 7]: 60; Plant response rating, Chickweed [1, 6]: 70; Plant response rating, Chickweed [1, 9]: 65; Plant response rating, Spanishneedles [4, 10]: 0; Plant response rating, Spanishneedles [4, 11]: 0; Plant response rating, Spanishneedles [4, 13]: 100; Plant response rating, Spanishneedles ([4]; Preemergence, rate not given, scale 0 to 100, 0 no effect, 100 complete control): 90; Plant response rating, Johnsongrass [5, 7]: 35; Plant response rating, Johnsongrass [5, 8]: 40; Plant response rating, Johnsongrass [5, 6]: 65; Plant response rating, Johnsongrass [5, 9]: 50; Plant response rating, Johnsongrass [5, 10]: 0; Plant response rating, Johnsongrass [5, 11]: 0; Plant response rating, Johnsongrass [5, 12]: 15; Plant response rating, Johnsongrass [5, 13]: 65
